According to BindingDB's records for doi:10.1016/j.ejmech.2012.05.016 (Piramal Healthcare, 2012):

Biological target: DGAT1 (Homo sapiens)
Experiment: Inhibition of human DGAT1 assessed as conversion of [14C]-oleoyl-CoA to [14C]-triglyceride after 10 mins by scintillation counting

CC(C)[C@H](NC(=O)c1cc(-c2ccc(NC(=O)Nc3ccccc3F)cc2)no1)C(=O)O
IC50: 141 nM

CC(C)[C@H](NC(=O)c1cc(-c2ccc(NC(=O)Nc3ccccc3Cl)cc2)no1)C(=O)O
IC50: 44 nM

CC(C)[C@H](NC(=O)c1ncc(-c2ccc(NC(=O)Nc3ccccc3Cl)cc2)o1)C(=O)O
IC50: 282 nM

CC(C)[C@H](NC(=O)c1cc(-c2ccc(NC(=O)Nc3cccc(Cl)c3)cc2)no1)C(=O)O
IC50: 45 nM

CC(C)[C@H](NC(=O)c1cc(-c2ccc(NC(=O)Nc3ccc(Cl)cc3)cc2)no1)C(=O)O
IC50: 124 nM

CC(C)[C@H](NC(=O)c1cc(-c2ccc(NC(=O)Nc3cccc(C(F)(F)F)c3)cc2)no1)C(=O)O
IC50: 66 nM

CC(C)[C@H](NC(=O)c1ncc(-c2ccc(NC(=O)Nc3cccc(C(F)(F)F)c3)cc2)o1)C(=O)O
IC50: 458 nM

CC(C)[C@H](NC(=O)c1cc(-c2ccc(NC(=O)Nc3ccc(Cl)cc3Oc3ccccc3)cc2)no1)C(=O)O
IC50: 86 nM

CC(C)[C@H](NC(=O)c1ncc(-c2ccc(NC(=O)Nc3ccc(Cl)cc3Oc3ccccc3)cc2)o1)C(=O)O
IC50: 230 nM

CC(C)[C@H](NC(=O)c1cc(-c2ccc(NC(=O)Nc3ccc(Cl)cc3F)cc2)no1)C(=O)O
IC50: 24 nM

CC(C)[C@H](NC(=O)c1cc(-c2ccc(NC(=O)Nc3ccc(F)cc3F)cc2)no1)C(=O)O
IC50: 62 nM

CC(C)[C@H](NC(=O)c1cc(-c2ccc(NC(=O)Nc3ccc(F)cc3)cc2)no1)C(=O)O
IC50: 60 nM

Cc1ccc(NC(=O)Nc2ccc(-c3cc(C(=O)N[C@H](C(=O)O)C(C)C)on3)cc2)cc1
IC50: 61 nM

Cc1ccccc1NC(=O)Nc1ccc(-c2cc(C(=O)N[C@H](C(=O)O)C(C)C)on2)cc1
IC50: 84 nM

CC(C)[C@H](NC(=O)c1cc(-c2ccc(NC(=O)Nc3ccc(F)c(F)c3)cc2)no1)C(=O)O
IC50: 75 nM

CC(C)[C@H](NC(=O)c1cc(-c2ccc(NC(=O)Nc3cc(F)cc(F)c3)cc2)no1)C(=O)O
IC50: 75 nM

CC(C)[C@H](NC(=O)c1cc(-c2ccc(NC(=O)Nc3cc(F)ccc3F)cc2)no1)C(=O)O
IC50: 141 nM

CC(C)[C@H](NC(=O)c1cc(-c2ccc(NC(=O)Nc3c(F)cccc3F)cc2)no1)C(=O)O
IC50: 185 nM

Cc1cc(C)cc(NC(=O)Nc2ccc(-c3cc(C(=O)N[C@H](C(=O)O)C(C)C)on3)cc2)c1
IC50: 114 nM

Cc1ccc(NC(=O)Nc2ccc(-c3cc(C(=O)N[C@H](C(=O)O)C(C)C)on3)cc2)cc1F
IC50: 178 nM

Cc1cc(F)ccc1NC(=O)Nc1ccc(-c2cc(C(=O)N[C@H](C(=O)O)C(C)C)on2)cc1
IC50: 90 nM

CC(C)[C@H](NC(=O)c1nc(-c2ccc(NC(=O)Nc3ccc(F)cc3F)cc2)no1)C(=O)O
IC50: 259 nM

CC(C)[C@H](NC(=O)c1cc(-c2ccc(Nc3nc4ccc(F)cc4s3)cc2)no1)C(=O)O
IC50: 120 nM
